The values below come from patent US20100298384A1, “NOVEL OXAZOLIDINONE COMPOUNDS AS ANTIINFECTIVE AGENTS” (priority 2006, published 2010).

Molecules are shown by their SMILES.

The term melting point denotes the temperature of the solid-liquid transition. In turn, `CC(=S)NC[C@H]1CN(c2ccc(-c3nc(Cn4ccnc4)cs3)c(F)c2)C(=O)O1` [Example 60, N-{3-[3-fluoro-4-(4-imidazol-1-ylmethyl-thiazol-2-yl)-phenyl]-2-oxo-oxazolidin-5(S)-ylmethyl}-thioacetamide] came in with a melting point of 169 to 171 °C. Then `CC(=S)NC[C@H]1CN(c2ccc(-c3nc(Cn4cccn4)cs3)c(F)c2)C(=O)O1` [Example 62, N-{3-[3-fluoro-4-(4-pyrazole-1-ylmethyl-thiazol-2-yl)-phenyl]-2-oxo-oxazolidin-5(S)-ylmethyl}-thioacetamide], with 166 to 168 °C; and `CCOC(=O)c1cn(Cc2cn(-c3ccc(N4C[C@H](CNC(=O)OC)OC4=O)cc3F)nn2)nc1N` (stereo in doubt) [Example 47, Ethyl 3-amino-1-(1-{2-fluoro-4-[5-(methoxycarbonylamino-methyl)-2-oxo-oxazolidin-3-yl]-phenyl}-1H-[1,2,3]triazol-4-ylmethyl)-1H-pyrazole-4-carboxylate], with 98 to 100 °C. Regarding `COC(=S)NC[C@H]1CN(c2ccc(-n3cc(Cn4ccc(C(F)(F)F)n4)nn3)c(F)c2)C(=O)O1` [Example 59], the melting point lay in the range of 179 to 180 °C.

`CC(=S)NC[C@H]1CN(c2ccc(-n3cnc(Cn4cccn4)c3)c(F)c2)C(=O)O1` (stereo in doubt) [Example 66, N-{3-[3-fluoro-4-(4-pyrazol-1-ylmethyl-imidazol-1-yl)-phenyl]-2-oxo-oxazolidin-5-ylmethyl}-thioacetamide] had a melting point of 137 to 139 °C. The value for `CC(=S)NC[C@H]1CN(c2ccc(-n3cnc(Cn4cncn4)c3)c(F)c2)C(=O)O1` [Example 67, N-{3-[3-fluoro-4-(4-[1,2,4]triazol-1-ylmethyl-imidazol-1-yl)-phenyl]-2-oxo-oxazolidin-5-ylmethyl}-thioacetamide] was 171 to 173 °C.

`CC(=O)NC[C@H]1CN(c2ccc(-c3nc(Cn4cccn4)cs3)c(F)c2)C(=O)O1` [Example 12, N-{3-[3-fluoro-4-(4-pyrazol-1-ylmethyl-thiazol-2-yl)-phenyl]-2-oxo-oxazolidin-5(S)-ylmethyl}-acetamide] yielded a melting point of 178 to 180 °C. Then `CC(=O)NC[C@H]1CN(c2ccc(-n3cc(Cn4cccn4)cn3)c(F)c2)C(=O)O1` [Example 20, N-{3-[3-fluoro-4-(4-pyrazol-1-ylmethyl-pyrazol-1-yl)-phenyl]-2-oxo-oxazolidin-5-(S)-ylmethyl}-acetamide], with 186 to 187 °C; and `CC(=O)NC[C@H]1CN(c2ccc(-c3csc(Cn4ccnc4)n3)c(F)c2)C(=O)O1` (stereo in doubt) [Example 16, N-{3-[3-Fluoro-4-(2-imidazol-1-ylmethyl-thiazol-4-yl)-phenyl]-2-oxo-oxazolidin-5-ylmethyl}-acetamide], with 154 to 156 °C. `CC(=O)NC[C@H]1CN(c2ccc(-n3cnc(Cn4cncn4)c3)c(F)c2)C(=O)O1` (stereo in doubt) [Example 26, N-{3-[3-fluoro-4-(4-[1,2,4]triazol-1-ylmethyl-imidazol-1-yl)-phenyl]-2-oxo-oxazolidin-5-ylmethyl}-acetamide] came in with a melting point of 171 to 173 °C.

Compound `CC(=O)NC[C@H]1CN(c2ccc(-c3nc(Cn4ccnc4)co3)c(F)c2)C(=O)O1` [Example 6, N-{3-[3-fluoro-4-(4-imidazol-1-ylmethyl-oxazol-2-yl)-phenyl]-2-oxo-oxazolidin-5(S)-ylmethyl}-acetamide] showed a melting point of 198 to 200 °C.

`CC(=O)NC[C@H]1CN(c2ccc(-n3cnc(Cn4ccnc4)c3)c(F)c2)C(=O)O1` (stereo in doubt) [Example 24, N-{3-[3-fluoro-4-(4-imidazol-1-ylmethyl-imidazol-1-yl)-phenyl]-2-oxo-oxazolidin-5-ylmethyl}-acetamide]: the melting point is 180 to 182 °C. Then `COC(=O)NC[C@H]1CN(c2ccc(-n3cc(Cn4ccc(C(F)(F)F)n4)nn3)c(F)c2)C(=O)O1` [Example 49], with 129 to 130 °C; and `COC(=O)NC[C@H]1CN(c2ccc(-n3cc(Cn4cncn4)nn3)c(F)c2)C(=O)O1` [Example 48], with 170 °C; and `COC(=S)NC[C@H]1CN(c2ccc(-c3nc(Cn4ccnc4)cs3)c(F)c2)C(=O)O1` [Example 51, O-methyl {3-[3-fluoro-4-(4-imidazol-1-ylmethyl-thiazol-2-yl)-phenyl]-2-oxo-oxazolidin-5(S)-ylmethyl}-thiocarbamate], with 169 to 171 °C. Then `COC(=S)NC[C@H]1CN(c2ccc(-c3nc(Cn4cccn4)cs3)c(F)c2)C(=O)O1` [Example 53, O-methyl {3-[3-fluoro-4-(4-pyrazol-1-ylmethyl-thiazol-2-yl)-phenyl]-2-oxo-oxazolidin-5(S)-ylmethyl}-thiocarbamate], with 157 to 158 °C. Then `COC(=O)NC[C@H]1CN(c2ccc(-n3cnc(Cn4ccnc4)c3)c(F)c2)C(=O)O1` (stereo in doubt) [Example 43, Methyl {3-[3-fluoro-4-(4-imidazol-1-ylmethyl-imidazol-1-yl)-phenyl]-2-oxo-oxazolidin-5-ylmethyl}-carbamate], with 78 to 80 °C; and `COC(=O)NC[C@H]1CN(c2ccc(-c3nc(Cn4ccnc4)cs3)c(F)c2)C(=O)O1` [Example 33], with 165 to 167 °C; and `CC(=S)NC[C@H]1CN(c2ccc(-c3nc(Cn4cncn4)cs3)c(F)c2)C(=O)O1` [Example 61, N-{3-[3-fluoro-4-(4-[1,2,4]triazol-1-ylmethyl-thiazol-2-yl)-phenyl]-2-oxo-oxazolidin-5(S)-ylmethyl}-thioacetamide], with 180 to 182 °C. As to `CC(=O)NC[C@H]1CN(c2ccc(-n3cnc(Cn4cccn4)c3)c(F)c2)C(=O)O1` (stereo in doubt) [Example 26, N-{3-[3-fluoro-4-(4-pyrazol-1-ylmethyl-imidazol-1-yl)-phenyl]-2-oxo-oxazolidin-5-ylmethyl}-acetamide], the melting point was in the range of 158 to 160 °C.

Consider `CC(=O)NC[C@H]1CN(c2ccc(-n3cc(Cn4cncn4)cn3)c(F)c2)C(=O)O1` [Example 22, N-{3-[3-fluoro-4-(4-[1,2,4]triazol-1-ylmethyl-pyrazol-1-yl)-phenyl]-2-oxo-oxazolidin-5(S)-ylmethyl}-acetamide], for which the melting point was in the range of 126 to 127 °C. For `COC(=O)NC[C@H]1CN(c2ccc(-c3nc(Cn4cccn4)co3)c(F)c2)C(=O)O1` [Example 34, Methyl {3-[3-fluoro-4-(4-pyrazol-1-ylmethyl-oxazol-2-yl)-phenyl]-2-oxo-oxazolidin-5(S)-ylmethyl}-carbamate], the melting point lay in the range of 170 to 172 °C. The value for `CC(=S)NC[C@H]1CN(c2ccc(-c3csc(Cn4cncn4)n3)c(F)c2)C(=O)O1` [Example 63, N-{3-[3-Fluoro-4-(2[1,2,4]-triazol-1-ylmethyl-thiazol-4-yl)-phenyl]-2-oxo-oxazolidin-5-ylmethyl}-thioacetamide] was 82 to 84 °C; that for `COC(=O)NC[C@H]1CN(c2ccc(-c3nc(Cn4cccn4)cs3)c(F)c2)C(=O)O1` [Example 36, Methyl {3-[3-fluoro-4-(4-pyrazol-1-ylmethyl-thiazol-2-yl)-phenyl]-2-oxo-oxazolidin-5(S)-ylmethyl}-carbamate] was 142 to 144 °C. For the compound `CC(=O)NC[C@H]1CN(c2ccc(-c3nc(Cn4ccnc4)cs3)c(F)c2)C(=O)O1` [Example 10, N-{3-[3-fluoro-4-(4-imidazol-1-ylmethyl-thiazol-2-yl)-phenyl]-2-oxo-oxazolidin-5(S)-ylmethyl}-acetamide], the melting point is 192 to 194 °C.

Turning to `CC(=S)NC[C@H]1CN(c2ccc(-n3cnc(Cn4ccnc4)c3)c(F)c2)C(=O)O1` (stereo in doubt) [Example 65, N-{3-[3-fluoro-4-(4-imidazol-1-ylmethyl-imidazol-1-yl)-phenyl]-2-oxo-oxazolidin-5-ylmethyl}-thioacetamide], the melting point fell in the range of 160 to 162 °C.

Regarding `COC(=O)NC[C@H]1CN(c2ccc(-c3nc(Cn4cncn4)cs3)c(F)c2)C(=O)O1` [Example 35, Methyl {3-[3-fluoro-4-(4-[1,2,4]triazol-1-ylmethyl-thiazol-2-yl)-phenyl]-2-oxo-oxazolidin-5(S)-ylmethyl}-carbamate], the melting point was in the range of 199 to 201 °C. Then `COC(=S)NC[C@H]1CN(c2ccc(-c3nc(Cn4cccn4)co3)c(F)c2)C(=O)O1` [Example 50, O-methyl {3-[3-fluoro-4-(4-pyrazol-1-ylmethyl-oxazol-2-yl)-phenyl]-2-oxo-oxazolidin-5(S)-ylmethyl}-thiocarbamate], with 145 to 147 °C; and `CC(=O)NC[C@H]1CN(c2ccc(-c3csc(Cn4cncn4)n3)c(F)c2)C(=O)O1` (stereo in doubt) [Example 14, N-{3-[3-fluoro-4-(2[1,2,4]triazol-1-ylmethyl-thiazol-4-yl)-phenyl]-2-oxo-oxazolidin-5-ylmethyl}-acetamide], with 154 to 156 °C; and `CC(=O)NC[C@H]1CN(c2ccc(-c3nc(Cn4cncn4)cs3)c(F)c2)C(=O)O1` [Example 11, N-{3-[3-fluoro-4-(4-[1,2,4]triazol-1-ylmethyl-thiazol-2-yl)-phenyl]-2-oxo-oxazolidin-5(S)-ylmethyl}-acetamide], with 196 to 198 °C. Then `CC(=O)NC[C@H]1CN(c2ccc(-n3cc(Cn4ccc(C(F)(F)F)n4)nn3)c(F)c2)C(=O)O1` [Example 32], with 130 to 140 °C; and `CC(=O)NC[C@H]1CN(c2ccc(-n3cc(Cn4ccnc4)cn3)c(F)c2)C(=O)O1` [Example 18, N-{3-[3-fluoro-4-(4-imidazol-1-ylmethyl-pyrazol-1-yl)phenyl]-2-oxo-oxazolidin-5-(8)-ylmethyl}-acetamide], with 171 to 172 °C. Then `COC(=O)NC[C@H]1CN(c2ccc(-n3cnc(Cn4cncn4)c3)c(F)c2)C(=O)O1` [Example 45, Methyl {3-[3-fluoro-4-(4-[1,2,4]-triazol-1-ylmethyl-imidazol-1-yl)-phenyl]-2-oxo-oxazolidin-5-ylmethyl}-carbamate], with 184 to 186 °C.
